The values below are quoted from earlier work in patent EP4570255A1, “SPORICIDAL ANTIMICROBIAL COMPOSITIONS AND USES THEREOF” (Silva, Renata Moisés Iwamizu, priority 2022, dated 2024).

SMILES strings stand for the structures. Structures can show the parent of a compound that is named as a salt.

Turning to `[H]/N=C(\N/C(=N/[H])NCCCCCCNC(=N)NC(=N)Nc1ccc(Cl)cc1)Nc1ccc(Cl)cc1` [digluconate salt, 1,1'-hexamethylene-bis-(5-(p-chlorophenyl)biguanide)], the solubility in water result is “about 70%”.
For `[H]/N=C(\N/C(=N/[H])NCCCCCCNC(=N)NC(=N)Nc1ccc(Cl)cc1)Nc1ccc(Cl)cc1` [diacetate salt, 1,1'-hexamethylene-bis-(5-(p-chlorophenyl)biguanide)], the solubility in water entry is “about 1.8%”.
